PubChem BioAssay (NCI)
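Compound exposure: 48 hours, 5 concentrations, 96-well plates. TGI marks complete inhibition of growth.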

Legend:
Assay in all cases: inhibition of tumour cell growth, NCI panel, 48 h
[1] = tested on: NCI-H23 lung
[2] = tested on: SNB-19 CNS
[3] = tested on: UACC-257 melanoma
[4] = tested on: SF-539 CNS
[5] = tested on: A498 renal
[6] = tested on: OVCAR-4 ovarian
[7] = tested on: UO-31 renal
[8] = tested on: HCT-116 colon
[9] = tested on: LOX IMVI melanoma
[10] = tested on: SK-MEL-28 melanoma
[11] = tested on: SW-620 colon
[12] = tested on: TK-10 renal
[13] = tested on: NCI-H226 lung
[14] = tested on: SF-268 CNS
[15] = tested on: COLO 205 colon
[16] = tested on: ACHN renal
[17] = tested on: SN12C renal
[18] = tested on: HCC-2998 colon
[19] = tested on: HCT-15 colon
[20] = tested on: HOP-18 NSCLC
[21] = tested on: LXFL 529 NSCLC
[22] = tested on: A549 NSCLC
[23] = tested on: RXF 393 renal
[24] = tested on: 786-0 renal
[25] = tested on: HL-60(TB) leukemia
[26] = tested on: NCI-H460 lung
[27] = tested on: OVCAR-8 ovarian
[28] = tested on: SF-295 CNS
[29] = tested on: MALME-3M melanoma
[30] = tested on: SR leukemia
[31] = tested on: KM20L2 colon
[32] = tested on: RPMI-8226 leukemia
[33] = tested on: IGROV1 ovarian
[34] = tested on: U251 CNS
[35] = tested on: XF 498 CNS
[36] = tested on: OVCAR-3 ovarian
[37] = tested on: KM12 colon
[38] = tested on: K-562 leukemia
[39] = tested on: DLD-1 colon
[40] = tested on: HOP-62 NSCLC
[41] = tested on: DMS 114 small cell lung
[42] = tested on: RXF-631 renal
[43] = tested on: HT29 colon
[44] = tested on: SNB-78 CNS
[45] = tested on: OVCAR-5 ovarian
[46] = tested on: HOP-92 NSCLC
[47] = tested on: EKVX NSCLC
[48] = tested on: SK-MEL-2 melanoma
[49] = tested on: NCI-H522 lung
[50] = tested on: SK-OV-3 ovarian
[51] = tested on: M19-MEL melanoma
[52] = tested on: MOLT-4 leukemia
[53] = tested on: SK-MEL-5 melanoma
[54] = tested on: UACC-62 melanoma
[55] = tested on: CAKI-1 renal
[56] = tested on: M14 melanoma
[57] = tested on: SNB-75 CNS
[58] = tested on: DMS 273 small cell lung
[59] = tested on: CCRF-CEM leukemia

Measured: TGI

Nc1ccn(CCNCCn2cnc3nc(N)[nH]c(=O)c32)c(=O)n1
not listed: [50] | [51] | [52] | [53] | [54] | [55] | [56] | [57] | [58] | [59]
> 100 µM: all other assays above

CC1(C)C(=NNC(=O)C[N+](C)(C)C)C(C)(C)C1=NNC(=O)C[N+](C)(C)C
not listed: [11] | [32]
> 100 µM: all other assays above
